From patent publication US12616669B2, “Methods and chemical compositions for treating skin conditions by providing long lasting skin pH control for improving skin barrier function” (Soteri Skin, Inc., priority 2021, dated 2026)
Like-named read-outs stand apart in the source and are kept apart here.

How the values were obtained:
[1] = in vivo
[2] = cited from earlier work
[3] = Evaluation of various buffering systems on human skin; details: sensitive, healthy or eczema affected skin

Structure (SMILES)	skin irritation / tolerability [1]	other results
O=C(O)CC(O)(CC(=O)O)C(=O)O [Citric acid]	well tolerated on healthy and eczema affected skin	
O=C(O)[C@H](O)[C@@H](O)[C@H](O)[C@H](O)CO [Gluconic acid]	well tolerated on healthy and eczema affected skin	
N[C@@H](CC(=O)O)C(=O)O [aspartic acid]		pKa [2]: around 3.65
O=C(O)CO [glycolic acid]		skin irritation / tolerability [3]: may be irritating for sensitive skin
CC(O)C(=O)O (centres unmarked) [lactic acid]	may be irritating for sensitive skin	
